The record followed here is ChEMBL document CHEMBL1201862, “PubChem BioAssay data set” (2004).

The structures appear in SMILES notation.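 Results reflect a 48-hour exposure of cells in 96-well plates to compound at five concentrations. GI50 = concentration required for 50% inhibition of growth.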 Calls of active or inactive are those of the source. Rule as the data show it: active = GI50 up to about 1.1 µM and inactive = higher.

Some test systems named below: A549; COLO 205; HCC 2998; HCT-116; K562; KM12; MOLT-4; NCI-H522; OVCAR-5; OVCAR-8; RPMI-8226; SF-295; SK-MEL-2; SK-MEL-5; SNB-19; SNB-75; SW-620; UACC-257; UACC-62; UO-31.
Common to all, as to assay: NCI tumour cell line growth inhibition, 48 h

As for `COc1cc(Br)c(CC2C3=C(CCN2C(=O)C2CCC2)CC(=O)CC3)cc1O` (stereo not given), the GI50 in the assay on A549 was 61.7 µM (inactive); with COLO 205 it was 19.5 µM (inactive); in the assay with HCC 2998, 26.7 µM (inactive); with HCT-116, 30.3 µM (inactive); with K562 it was 21.6 µM (inactive); in the assay on KM12, 27.2 µM (inactive). Besides, the GI50 is 26.1 µM (inactive) in the assay on MOLT-4; 14.5 µM (inactive) in the assay on NCI-H522; > 100 µM (inactive) with OVCAR-5; 38 µM (inactive) in the assay on OVCAR-8; 32.7 µM (inactive) in the assay with RPMI-8226; 33.5 µM (inactive) with SF-295. The GI50 in the assay with SK-MEL-2 is 36.1 µM (inactive); in the assay on SK-MEL-5, 28.6 µM (inactive); in the assay with SNB-19, 51.2 µM (inactive); in the assay on SNB-75 it was 26.8 µM (inactive); in the assay on SW-620 it was 34.6 µM (inactive); in the assay with UACC-257, 27.9 µM (inactive). The GI50 in the assay on UACC-62 is 15.6 µM (inactive); with UO-31 it was 55.6 µM (inactive).

Regarding `Cc1cnc(/C=N\NC(N)=S)c2cccc(N)c12`, the GI50 with A549 is 2.58 µM (inactive); in the assay with COLO 205, 1.4 µM (inactive); in the assay with HCC 2998 it was 0.578 µM (active); in the assay with HCT-116, 0.724 µM (active); in the assay with K562, 0.881 µM (active); in the assay with KM12, 1.9 µM (inactive). The GI50 was 0.34 µM (active) with MOLT-4; 0.871 µM (active) in the assay on NCI-H522; 5.46 µM (inactive) in the assay with OVCAR-5; 0.838 µM (active) with OVCAR-8; 0.714 µM (active) in the assay with RPMI-8226; 1.97 µM (inactive) in the assay with SF-295. Further, the GI50 with SK-MEL-2 was 2.1 µM (inactive); with SK-MEL-5 it was 2.04 µM (inactive); with SNB-19, 1.3 µM (inactive); in the assay with SNB-75, 0.553 µM (active); with SW-620, 3.01 µM (inactive); with UACC-257, 2.54 µM (inactive). In addition, the GI50 with UACC-62 is 0.359 µM (active); in the assay on UO-31, 0.52 µM (active).

For `NC1(C(=O)O)CCCC1` [CYCLOLEUCINE], the GI50 with A549, in the assay on COLO 205, in the assay on HCC 2998, with HCT-116, with K562 and in the assay with KM12 was > 625 µM (inactive) throughout. The GI50 in the assay on MOLT-4, in the assay with NCI-H522, in the assay with OVCAR-5, with OVCAR-8, with RPMI-8226 and in the assay with SF-295 was > 625 µM (inactive) throughout. In addition, the GI50 with SK-MEL-2 was > 625 µM (inactive); in the assay with SK-MEL-5, > 625 µM (inactive); with SNB-19 it was > 99.1 µM (inactive); in the assay on SNB-75 it was > 625 µM (inactive); in the assay on SW-620, > 625 µM (inactive); in the assay on UACC-257 it was > 625 µM (inactive). For the same compound, the GI50 in the assay on UACC-62 and with UO-31 was > 625 µM (inactive) each time.

As for `C/C(=C1/N=C(c2cc([N+](=O)[O-])ccc2Cl)N(c2ccc(Br)cc2)C1=O)c1cc2ccccc2oc1=O`, the GI50 was 25.9 µM (inactive) in the assay on A549; 3.38 µM (inactive) in the assay on COLO 205; 24 µM (inactive) in the assay with HCC 2998; 24.5 µM (inactive) in the assay on HCT-116; 34.4 µM (inactive) with K562; 21.8 µM (inactive) in the assay on KM12. Besides, the GI50 in the assay on MOLT-4 was 20.2 µM (inactive); in the assay with NCI-H522 it was 10.6 µM (inactive); with OVCAR-5, > 100 µM (inactive); with OVCAR-8 it was 81.8 µM (inactive); in the assay with RPMI-8226 it was 26.6 µM (inactive); in the assay on SF-295, 80.5 µM (inactive). The GI50 is 22.6 µM (inactive) with SK-MEL-2; 23.4 µM (inactive) with SK-MEL-5; 55.8 µM (inactive) in the assay on SNB-19; 33.8 µM (inactive) with SNB-75; 34.2 µM (inactive) in the assay with SW-620; 45.8 µM (inactive) in the assay on UACC-257. Also, the GI50 is 18.2 µM (inactive) with UACC-62 and 23.7 µM (inactive) in the assay with UO-31.
